Laboratory results from paper PMC6065180, “An allosteric propofol-binding site in kinesin disrupts kinesin-mediated processive movement on microtubules” (The Journal of Biological Chemistry, 2018).

How the values were obtained:
[1] = molecular target: T1, KIF3BB (Mus musculus, UniProt Q61771); test: Qdot single-molecule TIRF motility; assay type: biochemical; settings: 10 μM AziPm; 1 mM MgATP, X-rhodamine microtubules, paclitaxel, 5% DMSO, pH 6.9, 25 °C
T1 construct: gene Kif3b; KIF3B Met1-Leu369, C-terminal EB1 dimerization motif, TEV site and His8 tag kept; E. coli; engineered homodimer, Mr 48,011 per chain
T1 sequence (Q61771 1-369): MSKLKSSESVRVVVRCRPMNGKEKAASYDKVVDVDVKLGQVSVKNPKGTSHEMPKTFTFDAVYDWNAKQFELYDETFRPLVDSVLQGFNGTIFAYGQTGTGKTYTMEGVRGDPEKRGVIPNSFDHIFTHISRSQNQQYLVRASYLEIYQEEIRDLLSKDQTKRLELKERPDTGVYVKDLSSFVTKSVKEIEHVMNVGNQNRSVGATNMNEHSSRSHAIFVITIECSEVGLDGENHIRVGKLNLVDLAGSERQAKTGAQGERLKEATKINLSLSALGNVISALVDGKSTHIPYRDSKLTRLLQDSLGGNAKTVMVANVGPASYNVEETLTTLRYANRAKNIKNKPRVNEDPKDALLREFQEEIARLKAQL

[2] = molecular target: T2, KIF3CC (Mus musculus, UniProt O35066); test: Qdot single-molecule TIRF motility; assay type: biochemical; settings: 10 μM AziPm; 1 mM MgATP, X-rhodamine microtubules, paclitaxel, 5% DMSO, pH 6.9, 25 °C
T2 construct: gene Kif3c; KIF3C Met1-Leu396, C-terminal EB1 dimerization motif, TEV site and His8 tag kept; E. coli; engineered homodimer
T2 sequence (O35066 1-396): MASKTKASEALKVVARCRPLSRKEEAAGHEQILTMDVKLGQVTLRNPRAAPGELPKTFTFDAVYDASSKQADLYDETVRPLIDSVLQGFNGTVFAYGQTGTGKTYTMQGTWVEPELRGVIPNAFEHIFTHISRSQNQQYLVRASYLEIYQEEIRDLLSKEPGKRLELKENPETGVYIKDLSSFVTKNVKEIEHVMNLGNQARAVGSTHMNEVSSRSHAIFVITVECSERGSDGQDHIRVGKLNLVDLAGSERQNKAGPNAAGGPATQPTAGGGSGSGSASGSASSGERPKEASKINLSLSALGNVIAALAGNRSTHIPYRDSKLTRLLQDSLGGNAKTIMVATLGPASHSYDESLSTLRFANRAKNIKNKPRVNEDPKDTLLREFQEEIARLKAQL

## CC(C)c1ccc(C2(C(F)(F)F)N=N2)cc1O [AziPm, meta-azipropofol]
[1]
  % decrease in run length at 10 μM: ~ 50%
[2]
  % decrease in run length at 10 μM: ~ 35%
